# What was measured:
# Chymotrypsinogen B = Chymotrypsinogen B (Homo sapiens, UniProt P17538); assay: Inhibitory activity against chymotrypsinogen; Range 1-10 uM
# Cathepsin B [1] = target: T1, Cathepsin B (Homo sapiens, UniProt P07858); assay: Inhibitory activity against cathepsin B; In active
# [2] = target: T2, Calpain-1 catalytic subunit (Homo sapiens, UniProt P07384); assay: In vitro inhibitory activity against human calpain 1 in Molt-4 cells (intact human T-cell leukemia cell line); type: cell-based
# T2 sequence (P07384 whole entry): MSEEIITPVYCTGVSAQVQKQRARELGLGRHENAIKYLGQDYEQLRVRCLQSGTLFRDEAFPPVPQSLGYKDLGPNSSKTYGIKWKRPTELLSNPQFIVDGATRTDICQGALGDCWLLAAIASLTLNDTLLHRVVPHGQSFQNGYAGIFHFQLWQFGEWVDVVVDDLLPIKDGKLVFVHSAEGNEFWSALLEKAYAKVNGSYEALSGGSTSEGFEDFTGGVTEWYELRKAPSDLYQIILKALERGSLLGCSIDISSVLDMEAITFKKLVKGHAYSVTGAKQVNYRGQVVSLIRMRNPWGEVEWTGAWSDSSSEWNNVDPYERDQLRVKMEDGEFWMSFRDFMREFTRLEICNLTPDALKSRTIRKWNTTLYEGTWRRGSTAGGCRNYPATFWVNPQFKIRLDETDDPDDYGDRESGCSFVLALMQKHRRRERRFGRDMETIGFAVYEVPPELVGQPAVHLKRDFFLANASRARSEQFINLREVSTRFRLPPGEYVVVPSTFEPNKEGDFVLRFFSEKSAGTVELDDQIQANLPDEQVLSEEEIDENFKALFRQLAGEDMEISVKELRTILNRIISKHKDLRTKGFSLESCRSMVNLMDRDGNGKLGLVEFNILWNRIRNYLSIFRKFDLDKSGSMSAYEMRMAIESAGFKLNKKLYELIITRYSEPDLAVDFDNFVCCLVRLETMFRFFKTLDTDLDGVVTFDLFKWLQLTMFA
# [3] = target: T2, Calpain-1 catalytic subunit; assay: In vitro inhibitory activity against recombinant human calpain 1
# Cathepsin B [4] = target: T1, Cathepsin B; assay: Inhibitory activity against cathepsin B
# [5] = target: T2, Calpain-1 catalytic subunit; assay: In vitro inhibitory activity against human calpain I; Not determined
# Chymotrypsinogen B, sequence (P17538 34-164 limits assumed, other chains not shown): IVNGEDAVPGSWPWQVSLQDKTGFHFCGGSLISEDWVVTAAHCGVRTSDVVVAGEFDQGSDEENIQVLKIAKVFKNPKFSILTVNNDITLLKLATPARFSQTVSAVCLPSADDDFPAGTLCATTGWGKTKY
# Chymotrypsinogen B, sequence (P17538 167-263 limits assumed, other chains not shown): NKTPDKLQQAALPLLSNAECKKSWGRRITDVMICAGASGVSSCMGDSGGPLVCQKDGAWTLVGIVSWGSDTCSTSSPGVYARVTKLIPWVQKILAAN
IC50 [3] [nM],Compound,further results
–,CCN1C(C(=O)N[C@@H](Cc2ccccc2)C(=O)C(=O)NCCNS(=O)(=O)c2ccccc2)Cc2cc3c(cc2S1(=O)=O)OCCO3 (some centres undefined),IC50 (Chymotrypsinogen B): > 10000 nM; IC50 (Cathepsin B [1]): Not Active; IC50 [2]: 5000 nM
1000,CCN1C(C(=O)N[C@@H](Cc2ccccc2)C(=O)C(=O)OC)Cc2cc3c(cc2S1(=O)=O)OCCO3 (some centres undefined),–
200,CCN1C(C(=O)N[C@@H](Cc2ccccc2)C(=O)C(=O)NCCOC)Cc2cc3c(cc2S1(=O)=O)OCCO3 (some centres undefined),–
5000,CCN1C(C(=O)N[C@@H](Cc2ccccc2)C(=O)C(=O)NCCCn2ccnc2)Cc2cc3c(cc2S1(=O)=O)OCCO3 (some centres undefined),–
500,CCN1C(C(=O)N[C@@H](Cc2ccccc2)C(=O)C(=O)NCCCN2CCCC2=O)Cc2cc3c(cc2S1(=O)=O)OCCO3 (some centres undefined),–
205,CCN1C(C(=O)N[C@@H](Cc2ccccc2)C(=O)C(=O)NC(C)C)Cc2cc3c(cc2S1(=O)=O)OCCO3 (some centres undefined),–
195,CCN1C(C(=O)N[C@@H](Cc2ccccc2)C(=O)C(=O)NCCCN2CCOCC2)Cc2cc3c(cc2S1(=O)=O)OCCO3 (some centres undefined),–
1000,CCNC(=O)C(=O)[C@H](Cc1ccccc1)NC(=O)C1Cc2cc(Cl)ccc2S(=O)(=O)N1CC (some centres undefined),–
1000,"CCCCNC(=O)C(=O)[C@H](CC(C)C)NC(=O)C1Cc2cc3c(cc2S(=O)(=O)N1CC)OCCO3 (single isomer, unassigned; form 2)",–
200,C=CCNC(=O)C(=O)[C@H](Cc1ccccc1)NC(=O)C1Cc2cc3c(cc2S(=O)(=O)N1CC)OCCO3 (some centres undefined),–
63,CCN1C(C(=O)N[C@@H](Cc2ccccc2)C(=O)C(=O)NCCc2ccccc2)Cc2cc3c(cc2S1(=O)=O)OCCO3 (some centres undefined),–
–,CCCCNC(=O)C(=O)[C@H](Cc1ccccc1)NC(=O)C1Cc2cc3c(cc2S(=O)(=O)N1CC)OCCO3 (stereo in doubt),IC50 (Chymotrypsinogen B): > 10000 nM; IC50 (Cathepsin B [1]): Not Active
–,CCN1C(C(=O)N[C@@H](Cc2ccccc2)C(=O)C(=O)NCCNS(=O)(=O)c2ccc(-c3ccccn3)s2)Cc2cc3c(cc2S1(=O)=O)OCCO3 (some centres undefined),IC50 (Chymotrypsinogen B): > 10000 nM; IC50 (Cathepsin B [4]): Not Active; IC50 [2]: 1300 nM
7,O=C[C@H](Cc1ccccc1)NC(=O)C1Cc2ccccc2S(=O)(=O)N1 (some centres undefined),–
–,CCN1C(C(=O)N[C@@H](Cc2ccccc2)C(=O)C(=O)NCCNS(=O)(=O)c2ccc(F)cc2)Cc2cc3c(cc2S1(=O)=O)OCCO3 (some centres undefined),IC50 [2]: 2000 nM
–,CCN1C(C(=O)N[C@@H](Cc2ccccc2)C(=O)C(=O)NCCCNS(=O)(=O)c2ccc(F)cc2)Cc2cc3c(cc2S1(=O)=O)OCCO3 (some centres undefined),IC50 [2]: 2400 nM
500,"CCCCNC(=O)C(=O)[C@H](CC(C)C)NC(=O)C1Cc2cc3c(cc2S(=O)(=O)N1CC)OCCO3 (single isomer, unassigned; form 1)",–
–,CCN1C(C(=O)N[C@@H](Cc2ccccc2)C(=O)C(=O)NCCCNS(=O)(=O)c2ccc([N+](=O)[O-])cc2)Cc2cc3c(cc2S1(=O)=O)OCCO3 (some centres undefined),IC50 [2]: 3600 nM
–,CCN1C(C(=O)N[C@H](C=O)Cc2ccccc2)Cc2cc(Cl)ccc2S1(=O)=O (some centres undefined),IC50 [5]: 5 nM
–,CCN1C(C(=O)N[C@@H](Cc2ccccc2)C(=O)C(=O)NCCCNS(=O)(=O)c2ccccc2)Cc2cc3c(cc2S1(=O)=O)OCCO3 (some centres undefined),IC50 [2]: 2700 nM
240,CCN1C(C(=O)N[C@@H](Cc2ccccc2)C(=O)C(=O)NCc2ccncc2)Cc2cc3c(cc2S1(=O)=O)OCCO3 (some centres undefined),–
–,CCN1C(C(=O)N[C@@H](Cc2ccccc2)C(=O)C(=O)NCCNS(=O)(=O)c2ccc([N+](=O)[O-])cc2)Cc2cc3c(cc2S1(=O)=O)OCCO3 (some centres undefined),IC50 [2]: 4200 nM
170,CCN1C(C(=O)N[C@@H](Cc2ccccc2)C(=O)C(=O)NCc2ccccn2)Cc2cc3c(cc2S1(=O)=O)OCCO3 (some centres undefined),–
150,CCCCCNC(=O)C(=O)[C@H](Cc1ccccc1)NC(=O)C1Cc2cc3c(cc2S(=O)(=O)N1CC)OCCO3 (some centres undefined),–
